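Exposure lasted 48 hours, with cells grown in 96-well plates and compounds tested at five concentrations. GI50 = concentration required for 50% inhibition of growth. TGI: total growth inhibition.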
Legend:
Assay in all cases: DTP human tumour cell line panel, 48 h
SK-MEL-28 melanoma = system: SK-MEL-28 melanoma
CCRF-CEM leukemia = system: CCRF-CEM leukemia
HT29 colon = system: HT29 colon
HOP-62 NSCLC = system: HOP-62 NSCLC
UO-31 renal = system: UO-31 renal
786-0 renal = system: 786-0 renal
SK-MEL-5 melanoma = system: SK-MEL-5 melanoma
SR leukemia = system: SR leukemia
RPMI-8226 leukemia = system: RPMI-8226 leukemia
MCF7 breast = system: MCF7 breast

Cn1cnc([N+](=O)[O-])c1Sc1nccc(=O)[nH]1 showed a TGI (SK-MEL-28 melanoma) of over 100 µM, a TGI (CCRF-CEM leukemia) of over 100 µM and a TGI (HT29 colon) of over 100 µM. For the same compound, the TGI (HOP-62 NSCLC) was over 100 µM, the TGI (UO-31 renal) was over 100 µM and the TGI (786-0 renal) was over 100 µM. For the same compound, the TGI (SK-MEL-5 melanoma) was over 100 µM, the TGI (SR leukemia) was over 100 µM and the TGI (RPMI-8226 leukemia) was over 100 µM.

In the case of COCCn1cc(-c2csc(-c3c[nH]c4ccc(Br)cc34)n2)c2cccnc21, the GI50 (SK-MEL-28 melanoma) was 4.79 µM, the TGI (SK-MEL-28 melanoma) was over 100 µM and the GI50 (HT29 colon) was 3.36 µM. The TGI (HT29 colon) was over 100 µM, the GI50 (HOP-62 NSCLC) was 7.98 µM and the TGI (HOP-62 NSCLC) was 47.7 µM. The GI50 (UO-31 renal) was 3.1 µM, the TGI (UO-31 renal) was over 100 µM and the GI50 (MCF7 breast) was 1.79 µM. It also gave a TGI (MCF7 breast) of over 100 µM, a GI50 (786-0 renal) of 4.03 µM and a TGI (786-0 renal) of over 100 µM. It also gave a GI50 (SK-MEL-5 melanoma) of 3.24 µM, a TGI (SK-MEL-5 melanoma) of 11.7 µM and a GI50 (SR leukemia) of 3.25 µM. For the same compound, the TGI (SR leukemia) was over 100 µM, the GI50 (RPMI-8226 leukemia) was 5.14 µM and the TGI (RPMI-8226 leukemia) was over 100 µM.

Work on Cc1cc(=O)oc2cc(OC/C=C3\CCC(=O)O3)ccc12 yielded a GI50 (SK-MEL-28 melanoma) of 16.4 µM, a TGI (SK-MEL-28 melanoma) of 33.6 µM and a GI50 (CCRF-CEM leukemia) of 3.96 µM. It also gave a TGI (CCRF-CEM leukemia) of 30.3 µM, a GI50 (HT29 colon) of 9.7 µM and a TGI (HT29 colon) of 29.3 µM. It also gave a GI50 (HOP-62 NSCLC) of 21.6 µM, a TGI (HOP-62 NSCLC) of 58 µM and a GI50 (UO-31 renal) of 12.8 µM. For the same compound, the TGI (UO-31 renal) was 26.3 µM, the GI50 (MCF7 breast) was 5.73 µM and the TGI (MCF7 breast) was 27.6 µM. It also gave a GI50 (786-0 renal) of 10.5 µM, a TGI (786-0 renal) of 44.1 µM and a GI50 (SK-MEL-5 melanoma) of 17.6 µM. It also gave a TGI (SK-MEL-5 melanoma) of 37 µM, a GI50 (RPMI-8226 leukemia) of 3.2 µM and a TGI (RPMI-8226 leukemia) of 18.7 µM.

CC1CC[P+](c2ccccc2)(c2ccccc2)CC1 gave a TGI (SK-MEL-28 melanoma) of over 100 µM, a TGI (CCRF-CEM leukemia) of over 100 µM and a TGI (HT29 colon) of over 100 µM. For the same compound, the TGI (HOP-62 NSCLC) was over 100 µM, the TGI (UO-31 renal) was over 100 µM and the TGI (786-0 renal) was over 100 µM. It also gave a TGI (SK-MEL-5 melanoma) of 51.1 µM, a TGI (SR leukemia) of over 100 µM and a TGI (RPMI-8226 leukemia) of over 100 µM.

With O=C(O[C@H]1CCN2C[C@H]3C[C@H](CN4C(=O)CCC[C@H]34)[C@@H]2C1)c1ccc(O)cc1 the TGI (SK-MEL-28 melanoma) was over 100 µM, the TGI (CCRF-CEM leukemia) was over 100 µM and the TGI (HT29 colon) was over 100 µM. It also gave a TGI (HOP-62 NSCLC) of over 100 µM, a TGI (UO-31 renal) of over 100 µM and a TGI (MCF7 breast) of over 100 µM. It also gave a TGI (786-0 renal) of over 100 µM, a TGI (SR leukemia) of over 100 µM and a TGI (RPMI-8226 leukemia) of over 100 µM.

Compound CCN=C(C#N)NCC has a TGI (SK-MEL-28 melanoma) of over 100 µM, a TGI (CCRF-CEM leukemia) of over 100 µM and a TGI (HT29 colon) of over 100 µM. For the same compound, the TGI (HOP-62 NSCLC) was over 100 µM, the TGI (UO-31 renal) was over 100 µM and the TGI (786-0 renal) was over 100 µM. For the same compound, the TGI (SK-MEL-5 melanoma) was over 100 µM, the TGI (SR leukemia) was over 100 µM and the TGI (RPMI-8226 leukemia) was over 100 µM.

Work on COc1ccc(CCc2cc(OC)c(O)c(OC)c2)cc1 yielded a TGI (SK-MEL-28 melanoma) of 58.8 µM, a TGI (CCRF-CEM leukemia) of over 100 µM and a TGI (HT29 colon) of over 100 µM. For the same compound, the TGI (HOP-62 NSCLC) was over 100 µM, the TGI (UO-31 renal) was over 100 µM and the TGI (786-0 renal) was over 100 µM. It also gave a TGI (SK-MEL-5 melanoma) of over 100 µM, a TGI (SR leukemia) of over 100 µM and a TGI (RPMI-8226 leukemia) of over 100 µM.

Compound CC1=C([Se]CC(OC(=O)[C@@H](CO)NC(=O)OC(C)(C)C)C(=O)NCCCCCC(=O)OCc2ccccc2)C(=O)c2ccccc2C1=O (some centres not stated) has a GI50 (SK-MEL-28 melanoma) of 1.79 µM, a TGI (SK-MEL-28 melanoma) of 3.21 µM and a GI50 (HT29 colon) of 2.15 µM. The TGI (HT29 colon) was 3.97 µM, the GI50 (HOP-62 NSCLC) was 0.414 µM and the TGI (HOP-62 NSCLC) was 1.75 µM. It also gave a GI50 (UO-31 renal) of 1.54 µM, a TGI (UO-31 renal) of 3.03 µM and a GI50 (MCF7 breast) of 1.61 µM. The TGI (MCF7 breast) was 3.36 µM, the GI50 (786-0 renal) was 2.08 µM and the TGI (786-0 renal) was 3.53 µM. It also gave a GI50 (SK-MEL-5 melanoma) of 1.59 µM, a TGI (SK-MEL-5 melanoma) of 2.96 µM and a GI50 (SR leukemia) of 1.6 µM. The TGI (SR leukemia) was 6.55 µM, the GI50 (RPMI-8226 leukemia) was 2.18 µM and the TGI (RPMI-8226 leukemia) was 5.83 µM.

Compound O=C(O)CCC(C(=O)O)N1C(=O)C2C3CCC(C3)C2C1=O (configuration not stated) has a TGI (SK-MEL-28 melanoma) of over 100 µM, a TGI (HT29 colon) of over 100 µM and a TGI (HOP-62 NSCLC) of over 100 µM. The TGI (MCF7 breast) was over 100 µM, the TGI (786-0 renal) was over 100 µM and the TGI (SK-MEL-5 melanoma) was over 100 µM. It also gave a TGI (SR leukemia) of over 100 µM and a TGI (RPMI-8226 leukemia) of over 100 µM.

Reference: PubChem BioAssay (NCI)
